Test results as given in patent US20210070748A1, “INHIBITORS OF BRUTONS TYROSINE KINASE” (Pharmacyclics LLC, priority 2015, published 2021).
Structures can show the parent of a compound that is named as a salt. Where two headings read alike, the source gives them in different places.

Columns and labels:
Type in all cases: biochemical
[1] = target: T1, BTK-WT (Homo sapiens, UniProt Q06187); assay: Btk in vitro inhibitory activity (one of Method A TR-FRET, Method B electrophoretic mobility shift, Method C radiometric filter binding); details: read-out: BTK-WT (IC50)
T1 construct: purified from insect cells as a full-length construct containing an N-terminal 6X-His tag; His6 (N); made in house; host or cells: insect cells (baculovirus Sf21 in Method B)
T1 sequence (Q06187 whole entry): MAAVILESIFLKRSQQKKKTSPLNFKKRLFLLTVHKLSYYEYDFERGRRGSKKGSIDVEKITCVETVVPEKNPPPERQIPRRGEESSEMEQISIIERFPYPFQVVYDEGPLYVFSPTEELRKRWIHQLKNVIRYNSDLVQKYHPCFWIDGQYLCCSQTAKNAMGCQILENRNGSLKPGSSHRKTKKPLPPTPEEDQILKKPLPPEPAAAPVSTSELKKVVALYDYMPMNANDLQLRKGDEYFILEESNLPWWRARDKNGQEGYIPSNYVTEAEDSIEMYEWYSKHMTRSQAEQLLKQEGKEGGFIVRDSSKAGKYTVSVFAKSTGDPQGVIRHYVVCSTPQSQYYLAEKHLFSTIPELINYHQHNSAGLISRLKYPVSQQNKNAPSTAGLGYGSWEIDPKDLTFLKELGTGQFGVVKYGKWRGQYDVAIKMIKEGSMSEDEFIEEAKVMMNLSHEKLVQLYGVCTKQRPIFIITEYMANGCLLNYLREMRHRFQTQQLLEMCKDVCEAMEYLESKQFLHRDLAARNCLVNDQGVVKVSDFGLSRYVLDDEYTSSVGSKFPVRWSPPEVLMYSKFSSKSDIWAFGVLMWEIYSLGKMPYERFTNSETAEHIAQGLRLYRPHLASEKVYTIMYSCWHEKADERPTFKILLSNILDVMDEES

[2] = target: T2, JAK3 (Homo sapiens, UniProt P52333); assay: Inhibition of a panel of kinases, in vitro HotSpot kinase assay: JAK3; details: 1 μM ATP, read-out: JAK3 (IC50)
T2 sequence (P52333 1-1124): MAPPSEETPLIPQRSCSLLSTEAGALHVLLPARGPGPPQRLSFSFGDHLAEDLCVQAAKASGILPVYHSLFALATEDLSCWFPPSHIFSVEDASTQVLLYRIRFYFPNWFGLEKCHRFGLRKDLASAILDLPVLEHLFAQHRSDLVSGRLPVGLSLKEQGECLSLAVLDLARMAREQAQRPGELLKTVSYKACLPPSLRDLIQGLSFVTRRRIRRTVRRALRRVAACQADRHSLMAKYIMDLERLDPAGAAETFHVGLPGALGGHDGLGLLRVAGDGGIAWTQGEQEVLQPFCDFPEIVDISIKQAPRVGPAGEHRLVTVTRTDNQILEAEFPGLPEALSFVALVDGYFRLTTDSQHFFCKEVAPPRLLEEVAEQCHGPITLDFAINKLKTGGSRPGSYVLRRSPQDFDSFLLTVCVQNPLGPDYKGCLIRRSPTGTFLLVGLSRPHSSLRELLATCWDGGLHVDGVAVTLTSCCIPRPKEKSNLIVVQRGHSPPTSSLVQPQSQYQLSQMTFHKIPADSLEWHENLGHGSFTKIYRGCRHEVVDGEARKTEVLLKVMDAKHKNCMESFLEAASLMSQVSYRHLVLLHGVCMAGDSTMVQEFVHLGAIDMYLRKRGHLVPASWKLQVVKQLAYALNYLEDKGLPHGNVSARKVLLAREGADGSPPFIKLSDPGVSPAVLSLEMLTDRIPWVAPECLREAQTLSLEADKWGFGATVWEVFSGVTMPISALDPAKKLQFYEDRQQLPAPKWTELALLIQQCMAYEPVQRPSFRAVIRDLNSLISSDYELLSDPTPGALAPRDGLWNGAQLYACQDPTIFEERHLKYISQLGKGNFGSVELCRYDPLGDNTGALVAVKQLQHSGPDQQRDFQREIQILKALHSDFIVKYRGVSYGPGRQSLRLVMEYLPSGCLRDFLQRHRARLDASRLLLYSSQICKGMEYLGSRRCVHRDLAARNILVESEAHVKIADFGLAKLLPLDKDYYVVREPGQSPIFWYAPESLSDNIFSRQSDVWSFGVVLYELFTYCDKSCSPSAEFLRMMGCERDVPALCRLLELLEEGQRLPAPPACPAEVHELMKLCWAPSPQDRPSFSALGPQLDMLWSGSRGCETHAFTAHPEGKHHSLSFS

[3] = target: LCK (Homo sapiens, UniProt P06239); assay: Inhibition of a panel of kinases, in vitro HotSpot kinase assay: LCK; details: 1 μM ATP, read-out: LCK (IC50)
Chain of LCK (P06239 whole entry): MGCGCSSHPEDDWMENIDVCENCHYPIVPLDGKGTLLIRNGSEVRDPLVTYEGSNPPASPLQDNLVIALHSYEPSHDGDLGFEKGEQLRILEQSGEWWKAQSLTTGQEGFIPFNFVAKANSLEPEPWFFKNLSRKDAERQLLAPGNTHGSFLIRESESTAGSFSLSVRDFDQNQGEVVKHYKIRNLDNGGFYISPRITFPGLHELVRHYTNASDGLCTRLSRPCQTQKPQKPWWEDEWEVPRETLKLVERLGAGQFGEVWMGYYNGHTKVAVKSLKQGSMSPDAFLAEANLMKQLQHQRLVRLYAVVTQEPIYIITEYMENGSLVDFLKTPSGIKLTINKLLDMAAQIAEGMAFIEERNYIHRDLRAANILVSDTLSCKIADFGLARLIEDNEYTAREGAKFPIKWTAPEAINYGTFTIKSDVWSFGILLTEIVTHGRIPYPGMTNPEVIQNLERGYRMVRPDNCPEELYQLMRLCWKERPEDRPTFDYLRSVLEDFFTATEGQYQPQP

| SMILES | IC50 ([1]; Table 10, Formula A-I) [µM] | IC50 ([2]; Table 10, Formula A-I) [µM] | IC50 ([3]; Table 10, Formula A-I) [µM] | IC50 ([1]; Table 12, Formula C-I) [µM] | IC50 ([2]; Table 12, Formula C-I) [µM] | IC50 ([3]; Table 12, Formula C-I) [µM] | also measured |
| --- | --- | --- | --- | --- | --- | --- | --- |
| Cc1cc(Nc2cc(N3CCC[C@@H](NC(=O)N4Cc5ccccc5C4)C3)cnc2C(N)=O)sn1 [Example A-18, N-[(3R)-1-{6-carbamoyl-5-[(3-methyl-1,2-thiazol-5-yl)amino]pyridin-3-yl}piperidin-3-yl]-2,3-dihydro-1H-isoindole-2-carboxamide] | ≤ 0.1 | > 10 | > 10 |  |  |  |  |
| Cc1cc(Nc2nc(N3CCC(CNC(=O)N(C)C)CC3)cnc2C(N)=O)sn1 [Example A-75, 5-(4-{[(dimethylcarbamoyl)amino]methyl}piperidin-1-yl)-3-[(3-methyl-1,2-thiazol-5-yl)amino]pyrazine-2-carboxamide] | ≤ 0.1 | < 0.1 | 0.1 to 1 |  |  |  |  |
| Cc1cc(Nc2nc(N3CCC[C@@H](NC(=O)c4ccc(F)cc4)C3)cnc2C(N)=O)sn1 [Example A-20, 5-[(3R)-3-(4-fluorobenzamido)piperidin-1-yl]-3-[(3-methyl-1,2-thiazol-5-yl)amino]pyrazine-2-carboxamide] | ≤ 0.1 | > 10 | 0.1 to 1 |  |  |  |  |
| CN1CCN(C(=O)c2ccc(Nc3nc(NC4CCC(NC(=O)N(C)C)CC4)cnc3C(N)=O)cc2)CC1 (stereo not drawn) [Example B-13, 5-(4-(3,3-dimethylureido)cyclo-hexylamino)-3-(4-(4-methylpiperazine-1-carbonyl)phenylamino) pyrazine-2-carboxamide] |  |  |  |  |  |  | IC50 ([1]; Table 11, Formula B-I): ≤ 0.1 µM; IC50 ([2]; Table 11, Formula B-I): 0.1 to 1 µM; IC50 ([3]; Table 11, Formula B-I): < 0.1 µM |
| Cc1cc(Nc2cc(N3CCC[C@@H](NC(=O)N(C)C)C3)cnc2C(N)=O)sn1 [Example A-64, 5-[(3R)-3-[(dimethylcarbamoyl)amino]piperidin-1-yl]-3-[(3-methyl-1,2-thiazol-5-yl)amino]pyridine-2-carboxamide] | 0.1 to 1 | 1 to 10 | > 10 |  |  |  |  |
| Cc1cc(Nc2nc(N3CCC[C@@H](N4CCN(c5cccc(Cl)c5)C4=O)C3)cnc2C(N)=O)sn1 [Example A-52, 5-[(3R)-3-[3-(3-chlorophenyl)-2-oxoimidazolidin-1-yl]piperidin-1-yl]-3-[(3-methyl-1,2-thiazol-5-yl)amino]pyrazine-2-carboxamide] | ≤ 0.1 | 0.1 to 1 | < 0.1 |  |  |  |  |
| Cc1cc(Nc2nc(N3CCC[C@@H](NC(=O)Nc4ncc(C)s4)C3)cnc2C(N)=O)sn1 [Example A-12] | 0.1 to 1 | 1 to 10 | 1 to 10 |  |  |  |  |
| Cc1cc(Nc2nc(N3CC[C@@H](NC(=O)c4ccccc4)C3)cnc2C(N)=O)sn1 [Example A-50, 5-[(3R)-3-benzamidopyrrolidin-1-yl]-3-[(3-methyl-1,2-thiazol-5-yl)amino]pyrazine-2-carboxamide] | 0.1 to 1 | > 10 | 1 to 10 |  |  |  |  |
| Cc1cc(Nc2nc(N3CCC[C@@H](NC(=O)Nc4cccnc4)C3)cnc2C(N)=O)sn1 [Example A-11] | ≤ 0.1 | 1 to 10 | 0.1 to 1 |  |  |  |  |
| CN1CCN(C(=O)c2ccc(Nc3nc(NC4CCC(NC(=O)c5ccc(C6CC6)cc5F)CC4)cnc3C(N)=O)cc2)CC1 (stereo not drawn) [Example B-15, 5-(4-(4-cyclopropyl-2-fluoro-benzamido)cyclohexyl-amino)-3-(4-(4-methylpiperazine-1-carbonyl)phenylamino) pyrazine-2-carboxamide] |  |  |  |  |  |  | IC50 ([1]; Table 11, Formula B-I): ≤ 0.1 µM; IC50 ([2]; Table 11, Formula B-I): < 0.1 µM; IC50 ([3]; Table 11, Formula B-I): < 0.1 µM |
| CC1(c2ccc(Nc3nc(N4CCC[C@@H](NC(=O)c5ccccc5)C4)cnc3C(N)=O)cc2)CCN(C2CC2)CC1 [Example A-48, 5-[(3R)-3-benzamidopiperidin-1-yl]-3-{[4-(1-cyclopropyl-4-methylpiperidin-4-yl)phenyl]amino}pyrazine-2-carboxamide] | ≤ 0.1 | < 0.1 | < 0.1 |  |  |  |  |
| Cc1cc(Nc2nc(N3CCC[C@@H](NC(=O)c4ccccc4F)C3)cnc2C(N)=O)sn1 [Example A-23, 5-[(3R)-3-(2-fluorobenzamido)piperidin-1-yl]-3-[(3-methyl-1,2-thiazol-5-yl)amino]pyrazine-2-carboxamide] | ≤ 0.1 | 0.1 to 1 | 0.1 to 1 |  |  |  |  |
| CN(C)C(=O)N[C@@H]1CCCN(c2cnc(C(N)=O)c(Nc3ccc4ncccc4c3)n2)C1 [Example A-47, 5-[(3R)-3-[(dimethylcarbamoyl)amino]piperidin-1-yl]-3-[(quinolin-6-yl)amino]pyrazine-2-carboxamide] | ≤ 0.1 | 1 to 10 | > 10 |  |  |  |  |

Further lines, with some results ahead:

| IC50 ([1]; Table 10, Formula A-I) [µM] | IC50 ([2]; Table 10, Formula A-I) [µM] | IC50 ([3]; Table 10, Formula A-I) [µM] | IC50 ([1]; Table 12, Formula C-I) [µM] | IC50 ([2]; Table 12, Formula C-I) [µM] | IC50 ([3]; Table 12, Formula C-I) [µM] | SMILES | also measured |
| --- | --- | --- | --- | --- | --- | --- | --- |
|  |  |  | ≤ 0.1 | > 10 | > 10 | Cc1cc(Nc2nc(N[C@@H]3CCCN(C(=O)c4ccccc4)C3)cnc2C(N)=O)sn1 [Example C-3, 5-{[(3R)-1-benzoylpiperidin-3-yl]amino}-3-[(3-methyl-1,2-thiazol-5-yl)amino]pyrazine-2-carboxamide] |  |
|  |  |  | ≤ 0.1 | 0.1 to 1 | 0.1 to 1 | Cc1cc(Nc2nc(N[C@H]3CCCN(C(=O)N(C)C)C3)cnc2C(N)=O)sn1 [Example C-2, 5-{[(3S)-1-(dimethylcarbamoyl)piperidin-3-yl]amino}-3-[(3-methyl-1,2-thiazol-5-yl)amino]pyrazine-2-carboxamide] |  |
|  |  |  | 0.1 to 1 | 1 to 10 | 1 to 10 | Cc1cc(Nc2nc(N(C)CC3CCN(C(=O)N(C)C)CC3)cnc2C(N)=O)sn1 [Example C-14, 5-({[1-(dimethylcarbamoyl)piperidin-4-yl]methyl}(methyl)amino)-3-[(3-methyl-1,2-thiazol-5-yl)amino]pyrazine-2-carboxamide] |  |
|  |  |  | ≤ 0.1 | 1 to 10 | 1 to 10 | Cc1cc(Nc2nc(N[C@@H]3CCN(C(=O)c4ccccc4)C3)cnc2C(N)=O)sn1 [Example C-11, 5-{[(3R)-1-benzoylpyrrolidin-3-yl]amino}-3-[(3-methyl-1,2-thiazol-5-yl)amino]pyrazine-2-carboxamide hydrochloride] |  |
|  |  |  | 1 to 10 | > 10 | > 10 | Cc1cc(Nc2nc(N[C@H]3CCCN(C(=O)c4ccccc4)C3)cnc2C(N)=O)sn1 [Example C-6, 5-{[(3S)-1-benzoylpiperidin-3-yl]amino}-3-[(3-methyl-1,2-thiazol-5-yl)amino]pyrazine-2-carboxamide] |  |
|  |  |  | ≤ 0.1 | > 10 | > 10 | Cc1cc(Nc2nc(N[C@H]3CCCN(C(=O)c4ccc(N(C)C)cc4)C3)cnc2C(N)=O)sn1 [Example C-4, 5-{[(3S)-1-[4-(dimethylamino)benzoyl]piperidin-3-yl]amino}-3-[(3-methyl-1,2-thiazol-5-yl)amino]pyrazine-2-carboxamide] |  |
|  |  |  | 0.1 to 1 | 0.1 to 1 | 0.1 to 1 | Cc1cc(Nc2nc(N[C@@H]3CCN(C(=O)N(C)C)C3)cnc2C(N)=O)sn1 [Example C-12, 5-([(3R)-1-(dimethylcarbamoyl)pyrrolidin-3-yl]amino)-3-[(3-methyl-1,2-thiazol-5-yl)amino]pyrazine-2-carboxamide] |  |
|  |  |  | ≤ 0.1 | 1 to 10 | 1 to 10 | Cc1cc(Nc2nc(N[C@@H]3CCN(C(=O)c4ccc(N(C)C)cc4)C3)cnc2C(N)=O)sn1 [Example C-13, 5-([(3R)-1-[4-(dimethylamino)benzoyl]pyrrolidin-3-yl]amino)-3-[(3-methyl-1,2-thiazol-5-yl)amino]pyrazine-2-carboxamide] |  |
